Experimental data from patent US20180079912A1, “ANTIFOULING MATERIALS” (priority 2013, published 2018).
Square brackets hold non-standard residues; d marks the D form. Peptide text beside a SMILES is read from it. Phe(4-F) = N[C@@H](Cc1ccc(F)cc1)C(=O)O; Dopa = N[C@@H](Cc1ccc(O)c(O)c1)C(=O)O

Tests used:
[1] = Surface free energy, Owens-Wendt geometric mean equation; assay type: physicochemical; conditions: f-DOPA-coated gold surface; water and diiodomethane
Experimental: (§1) The wetting properties were further investigated by the tilting-plate method that measured the dynamic contact angles, because it was essential in the confirmation of self-cleaning properties to investigate the dynamic water contact angles and surface free energies. The advancing (yadv) and receding (yrec) water contact angles of f-DOPA-coated substrates were measured, and the contact angle hysteresis (i.e., (yadv-yrec)) of each substrate was calculated. […] A water droplet on the substrate easily rolled off at a tilt angle of 5.31, which is clear evidence of self-cleaning properties. […] In addition, the surface free energy (gS) was calculated based on the Owens-Wendt geometric mean equation that divides the surface free energy into the dispersive (gDS) and polar (gPS) ones.
The surface free energy (gS; gS=gDS+gPS) of each surface was determined by measuring the contact angles with water and diiodomethane (CH2I2). The surface free energy of the f-DOPA-coated gold surface was calculated to be 0.279 mJ m^−2, and the other substrates have the surface free energies between 0.2 and 0.9 mJ m^−2. These values are extremely low, probably because of both the structural roughness and the incorporated perfluoro groups. For comparison, the surface free energy of a smooth surface modified with CF3 groups in hexagonal close packing was reported to be 6.7 mJ m^−2. […]

[2] = Dynamic water contact angles, tilting-plate method; assay type: physicochemical; conditions: gold substrate after coating
Experimental: as §1

[3] = XPS, SEM and AFM of f-DOPA films; assay type: physicochemical
Experimental: After 12 h, the substrate was washed with acetonitrile, and the coating process was repeated with a fresh f-DOPA solution.

[4] = Layer thickness on Ti evaluated by XPS; assay type: physicochemical; conditions: Ti substrates, prolonged incubation
Experimental: The X-ray Photoelectron Spectroscopy (XPS) measurements were performed using a Kratos AXIS Ultra X-ray photoelectron spectrometer (Kratos Analytical Ltd., Manchester, UK). Spectra were acquired using the A1-Kα monochromatic X-ray source (1,486.7 eV). Sample take-off angle was 90° (i.e. normal to the analyzer). The vacuum pressure in the analyzing chamber maintained to 2·10^-9 Torr. […] Data analyses were done using the Kratos Vision data reducing processing software (Kratos Analytical Ltd.) and […] Software Ltd.). Using the XPS measurements, it is possible to calculate the thickness of the assembled layers. We have done so using the standard attenuation relations of the photoelectrons emerging from different sample depths. The thickness calculation is based on the Briggs et al. method and others. For the Au substrate, the overlay thickness d (nm) expressed as: […] Calculated, using S. Tougard […] software (http://www.quases.com). Inelastic electron mean free path calculated from the Tanuma, Powell and Penn algorithm [Penn, 1994].

[5] = AFM topography of mica coated with the peptides; assay type: physicochemical; conditions: coated mica substrate, 0.5 mg/mL in methanol overnight
Experimental: Freshly cleaved mica surfaces were dipped overnight in different peptide solution at a concentration of 0.5 mg/mL in methanol. Then, the surfaces were washed with fresh methanol and dried under N2.

[6] = QCM-D real-time adhesion of peptides to Ti sensor (Sauerbrey model); conditions: QCM-D on Ti sensor, 0.5 mg/mL in MeOH, 40 minutes
Experimental: QCM-D (Q-sense, Biolin Scientific) was used for the study of peptide adhesion onto Ti surface. Measurements were performed in a flow module E1 system. Ti sensors with a fundamental resonant frequency of 5 MHz were also purchased from Q-sense and used as supplied. Prior to each experiment Ti sensors were cleaned with Oxygen/Plasma (Atto, Diener Electronic), followed by rinsing with 2% SDS and TDW and finally dried under N2. All QCM-D experiments were performed under flow-through conditions using a digital peristaltic pump ([…] Peristaltic Pump, IDEX) operating in pushing mode. The studied solutions were injected to the sensor crystal chamber at a rate of 0.1 mL/min. Organic solvent compatible tube and O-ring were used for the flow system. Peptides were dissolved in MeOH to a concentration of 0.5 mg/mL. The data were fitted with Sauerbrey model. According to this model the mass of adhering layer is calculated as […]

[7] = Coating thickness by ellipsometry (Cauchy model); assay type: physicochemical; conditions: Cauchy film model
Experimental: The thickness of the peptide-based coating was measured using α-SE spectroscopic ellipsometer (J. A. Woollam, Lincoln, Nebr., USA). […] The thickness of the layers and refractive indices were fitted according to the Cauchy model. The coefficients of the Cauchy equation were initially fixed for organic layers (An=1.45, Bn=0.01 and Cn=0), and an angle offset was permitted. Then, the parameters were allowed to be fitted to determine more accurate values.

[8] = Contact angle measurements of peptide-coated surfaces; assay type: physicochemical; conditions: titanium substrate coated with peptide; bare 43.2°; 0.5 mg/mL in methanol
Experimental: The clean surfaces were dipped in a peptide solution (0.5 mg/mL in methanol) and left for overnight at RT. Then, they were rinsed extensively with methanol and dried under nitrogen. Contact angle measurements were carried out using a Theta Lite optical tensiometer (Attension, Finland). Each experimental measurement consisted of three repeats, and the reported angles were averaged. […] We chose this concentration of peptide since it formed a substantial coating that gave a good signal in various characterization methods. After incubation, we thoroughly washed the substrate with methanol and dried it under nitrogen. Due to the hydrophobic moieties of the peptides, water could not be used as a solvent system despite its high polarity. We used methanol as the solvent since it dissolved the peptide completely, and at the same time allowed it to adhere the substrate. Since methanol is a toxic solvent, we also examined other solvents with different polarities.

Compound	surface free energy [1] [mJ m^−2]	contact angle hysteresis [2]	tilt angle at which a water droplet rolled off [2]	film thickness ([3]; f-DOPA coating on gold, from disappearance of Au XPS peaks) [nm]	root-mean-square roughness (AFM) ([3]; f-DOPA film) [nm]	average thickness of the peptide layer evaluated by XPS [4] [nm]	height of spherical-like aggregates (AFM) [5]	Density [6] [Kg/m^3]	Mass/Area [6] [ng/cm^2]	Thickness [6]	thickness of the coating by ellipsometry [7] [nm]	contact angle [8] [°]
NC(Cc1ccc(O)c(O)c1)C(=O)OCCC(F)(F)C(F)(F)C(F)(F)C(F)(F)C(F)(F)C(F)(F)C(F)(F)C(F)(F)F (centres unmarked) [f-DOPA]	0.279	9.91	5.31	≥ 10	533.92	–	–	–	–	–	–	–
NH2-L-DOPA-D-(4F)Phe(2)-D-(4F)Phe(3)-COOMe [Peptide 4]	–	–	–	–	–	4.41±0.03	0.32-0.65 nm	769	45 ± 2	5.6 ± 0.3 Å	–	–
COC(=O)[C@H](Cc1ccc(F)cc1)NC(=O)[C@@H](N)Cc1ccc(O)c(O)c1 [Peptide 6, NH2-L-DOPA-L-(4F) Phe-COOMe] (H-[Dopa]-[Phe(4-F)]-OMe)	–	–	–	–	–	3.82±0.04	1.02-3.65 nm	805	13 ± 2	1.7 ± Å	3.66±0.04	–
NH2-DOPA-L-(F5)Phe(2)-L-(F5)Phe(3)-COOMe [Peptide 5]	–	–	–	–	–	4.2±0.1	1.00-5.00 nm	717	27 ± 3	3.4 ± Å	5.2±0.1	–
NH2-L-DOPA-L-(4F)Phe(2)-D-(4F)Phe(3)-COOMe [Peptide 2]	–	–	–	–	–	4.3±0.1	0.20-0.48 nm	824	57 ± 3	7.3 ± 0.3 Å	–	–
NH2-L-DOPA-L(4F)-Phe(2)-L(4F)-Phe(3)-COOMe [Peptide 1]	–	–	–	–	–	3.9±0.1	0.25-0.50 nm	767 ± 4	72.1 ± 0.4	9.11 ± 0.05 Å	–	68.1
NH2-L-DOPA-D-(4F)Phe(2)-L-(4F)Phe(3)-COOMe [Peptide 3]	–	–	–	–	–	3.9±0.1	0.20-2.30 nm	760	43 ± 4	5.4 ± 0.5 Å	–	–
